Values joined by “and” are separate entries in the source; they are usually repeats but may differ in a detail not shown here. Equal values may be shown once. Where a name gives a salt, the structure may show the parent alone.
Key:
CCR2 = CCR2 (Homo sapiens (Human), UniProt P41597); assay: MCP-1 Receptor Binding Assay in THP-1 Cells; details: stated as 'believed to have', approximate ('about')
Experimental: Human monocytic cell line THP-1 cells were obtained from American Type Culture Collection (Manassas, Va., USA). […] The cell density was maintained […].
1 μM cold MCP-1 was used for nonspecific binding.

[1] = Moisture sorption/desorption analysis; format: physicochemical; details: for total hygroscopic weight increase (uptake): up to 90% RH
Experimental: The crystalline phosphate, sulfate and maleate salts of the compound of formula (I-S) were additional tested in DSC, TGA and moisture sorption/desorption. […] The moisture sorption analysis was performed using Hiden Isochema system Model IGAsorp. The sample (˜5 mg) was run in a stainless-steel mesh crucible. […] The moisture profile consisted of 2 cycles of vapor adsorption/desorption.

Solution solubility = details: thermodynamic from solid
hCCR2KI mice = assay: animal or person; format: in vivo, mouse
[2] = test system: high-fat diet induced obese mice; assay: High-Fat Diet Induced Obesity and Insulin Resistance in Mice

Sequence of CCR2 (P41597 whole entry): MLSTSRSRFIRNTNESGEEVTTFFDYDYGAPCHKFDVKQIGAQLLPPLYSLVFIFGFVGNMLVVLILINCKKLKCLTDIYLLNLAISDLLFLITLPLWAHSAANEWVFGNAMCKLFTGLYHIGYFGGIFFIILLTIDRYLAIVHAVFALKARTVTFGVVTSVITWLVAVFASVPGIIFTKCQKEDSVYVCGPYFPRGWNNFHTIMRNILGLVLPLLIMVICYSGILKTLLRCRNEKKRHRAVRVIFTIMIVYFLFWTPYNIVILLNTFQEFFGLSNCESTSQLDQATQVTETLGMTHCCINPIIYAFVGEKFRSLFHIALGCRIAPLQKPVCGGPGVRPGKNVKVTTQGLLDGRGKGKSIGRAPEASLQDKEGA

SMILES: COCCN([C@@H]1C[C@H]2OCC[C@@]2(C(=O)N2CCc3ncc(C(F)(F)F)cc3C2)C1)[C@H]1CCOC[C@H]1OC [Example 41, ((3aS,5S,6aR)-5-((2-methoxyethyl)((3S,4S)-3-methoxytetrahydro-2H-pyran-4-yl)amino)hexahydro-2H-cyclopenta[b]furan-3a-yl)(3-(trifluoromethyl)-7,8-dihydro-1,6-naphthyridin-6(5H)-yl)methanone]
- IC50 (CCR2): > 200 nM

SMILES: CO[C@@H]1COCC[C@@H]1N[C@@H]1C[C@H]2OCC[C@@]2(C(=O)N2CCc3ncc(C(F)(F)F)cc3C2)C1 [sulfate salt, ((3aS,5S,6aR)-5-(((3S,4S)-3-methoxytetrahydro-2H-pyran-4-yl)amino)hexahydro-2H-cyclopenta[b]furan-3a-yl)(3-(trifluoromethyl)-7,8-dihydro-1,6-naphthyridin-6(5H)-yl)methanone]
- hygroscopic weight increase ([1]; up to 60% RH): 1.6%
- total hygroscopic weight increase (uptake) [1]: 26.5%

SMILES: COc1cccc(C2CCN([C@@H]3C[C@H]4OCC[C@@]4(C(=O)N4CCc5ncc(C(F)(F)F)cc5C4)C3)CC2)c1 [Example 33, ((3aS,5S,6aR)-5-(4-(3-methoxyphenyl)piperidin-1-yl)hexahydro-2H-cyclopenta[b]furan-3a-yl)(3-(trifluoromethyl)-7,8-dihydro-1,6-naphthyridin-6(5H)-yl)methanone]
- IC50 (CCR2): < 50 nM

SMILES: CO[C@@H]1COCC[C@@H]1N[C@@H]1C[C@H]2OCC[C@@]2(C(=O)N2CCc3ncc(C(F)(F)F)cc3C2)C1 [phosphate salt, ((3aS,5S,6aR)-5-(((3S,4S)-3-methoxytetrahydro-2H-pyran-4-yl)amino)hexahydro-2H-cyclopenta[b]furan-3a-yl)(3-(trifluoromethyl)-7,8-dihydro-1,6-naphthyridin-6(5H)-yl)methanone]
- hygroscopic weight increase ([1]; up to 60% RH): 3.3%
- total hygroscopic weight increase (uptake) [1]: 69.4%

SMILES: COC1COCCC1N[C@@H]1C[C@H]2OC(c3ccnn3C)C[C@@]2(C(=O)N2CCc3ncc(C(F)(F)F)cc3C2)C1 (stereo partly drawn) [Example 17, ((3aS,5S,6aR)-5-((3-methoxytetrahydro-2H-pyran-4-yl)amino)-2-(1-methyl-1H-pyrazol-5-yl)hexahydro-2H-cyclopenta[b]furan-3a-yl)(3-(trifluoromethyl)-7,8-dihydro-1,6-naphthyridin-6(5H)-yl)methanone]
- IC50 (CCR2): 100 to 200 nM

SMILES: CO[C@@H]1COCC[C@@H]1N[C@@H]1C[C@H]2OCC[C@@]2(C(=O)N2CCc3ncc(C(F)(F)F)cc3C2)C1.O=C(O)CCC(=O)O [((3aS,5S,6aR)-5-(((3S,4S)-3-methoxytetrahydro-2H-pyran-4-yl)amino)hexahydro-2H-cyclopenta[b]furan-3a-yl)(3-(trifluoromethyl)-7,8-dihydro-1,6-naphthyridin-6(5H)-yl)methanone]
- moisture retained at the end of the desorption phase ([1]; multiple sorption/desorption cycles, 25° C.): about 2.7%
- hygroscopic weight increase ([1]; up to 70% RH): 3.8%
- total hygroscopic weight increase (uptake) [1]: 70%
- solubility (Solution solubility; 0.1N NaOH, aqueous buffer): > 100 mg/mL
- solubility (Solution solubility; 0.5% methocel, aqueous with cosolvent or surfactant or cyclodextrin): > 100 mg/mL
- solubility (Solution solubility; 20% HpbCD, aqueous with cosolvent or surfactant or cyclodextrin): > 100 mg/mL
- solubility (Solution solubility; borate buffer, pH 8, aqueous buffer): > 100 mg/mL
- solubility (Solution solubility; borate buffer, pH 10, aqueous buffer): > 100 mg/mL
- solubility (Solution solubility; citrate buffer, pH 2, aqueous buffer): > 100 mg/mL
- solubility (Solution solubility; citrate buffer, pH 4, aqueous buffer): > 100 mg/mL
- solubility (Solution solubility; citrate buffer, pH 6, aqueous buffer): > 100 mg/mL
- solubility (Solution solubility; simulated gastric fluid): > 100 mg/mL
- solubility (Solution solubility; simulated intestinal fluid, fassgf or other biorelevant): > 100 mg/mL
- solubility (Solution solubility; water): > 50 mg/mL

SMILES: O=C(N1COc2ccc(C(F)(F)F)cc2C1)[C@@]12CCO[C@@H]1C[C@@H](N1CCC(c3ccccc3)CC1)C2 [Example 38, ((3aS,5S,6aR)-5-(4-phenylpiperidin-1-yl)hexahydro-2H-cyclopenta[b]furan-3a-yl)(6-(trifluoromethyl)-2H-benzo[e][1,3]oxazin-3(4H)-yl)methanone]
- IC50 (CCR2): 100 to 200 nM

SMILES: COC1COCCC1N[C@@H]1C[C@H]2OC(CC(C)C)C[C@@]2(C(=O)N2CCc3ncc(C(F)(F)F)cc3C2)C1 (stereo partly drawn) [Example 14, ((3aS,5S,6aR)-2-isobutyl-5-((3-methoxytetrahydro-2H-pyran-4-yl)amino)hexahydro-2H-cyclopenta[b]furan-3a-yl)(3-(trifluoromethyl)-7,8-dihydro-1,6-naphthyridin-6(5H)-yl)methanone]
- IC50 (CCR2): 50 to 100 nM

SMILES: COC1COCCC1N[C@@H]1C[C@H]2OC(C3CCCCC3)C[C@@]2(C(=O)N2CCc3ncc(C(F)(F)F)cc3C2)C1 (stereo partly drawn) [Example 15, ((3aS,5S,6aR)-2-cyclohexyl-5-((3-methoxytetrahydro-2H-pyran-4-yl)amino)hexahydro-2H-cyclopenta[b]furan-3a-yl)(3-(trifluoromethyl)-7,8-dihydro-1,6-naphthyridin-6(5H)-yl)methanone]
- IC50 (CCR2): < 50 nM

SMILES: CN(C)C(=O)c1cccc(C2CCN([C@@H]3C[C@H]4OCC[C@@]4(C(=O)N4COc5ccc(C(F)(F)F)cc5C4)C3)CC2)c1 [Example 39, N,N-dimethyl-3-(1-((3aS,5S,6aR)-3a-(6-(trifluoromethyl)-3,4-dihydro-2H-benzo[e][1,3]oxazine-3-carbonyl)hexahydro-2H-cyclopenta[b]furan-5-yl)piperidin-4-yl)benzamide]
- IC50 (CCR2): < 50 nM

SMILES: COCCOCCOCCOCCCN([C@@H]1C[C@H]2OCC[C@@]2(C(=O)N2CCc3ncc(C(F)(F)F)cc3C2)C1)[C@H]1CCOC[C@H]1OC [Example 42, ((3aS,5S,6aR)-5-(((3S,4S)-3-methoxytetrahydro-2H-pyran-4-yl)(2,5,8,11-tetraoxatetradecan-14-yl)amino)hexahydro-2H-cyclopenta[b]furan-3a-yl)(3-(trifluoromethyl)-7,8-dihydro-1,6-naphthyridin-6(5H)-yl)methanone]
- IC50 (CCR2): > 200 nM

SMILES: CO[C@@H]1COCC[C@@H]1N[C@@H]1C[C@H]2OCC[C@@]2(C(=O)N2CCN(c3cccc(C(F)(F)F)n3)CC2)C1 [Example 24, ((3 aS,5S,6aR)-5-(((3S,4S)-3-methoxytetrahydro-2H-pyran-4-yl)amino)hexahydro-2H-cyclopenta[b]furan-3a-yl)(4-(6-(trifluoromethyl)pyridin-2-yl)piperazin-1-yl)methanone]
- IC50 (CCR2): > 200 nM

SMILES: COC1COCCC1N[C@@H]1C[C@H]2OC(c3nccn3C)C[C@@]2(C(=O)N2CCc3ncc(C(F)(F)F)cc3C2)C1 (stereo partly drawn) [Example 18, ((3 aS,5S,6aR)-5-((3-methoxytetrahydro-2H-pyran-4-yl)amino)-2-(1-methyl-1H-imidazol-2-yl)hexahydro-2H-cyclopenta[b]furan-3a-yl)(3-(trifluoromethyl)-7,8-dihydro-1,6-naphthyridin-6(5H)-yl)methanone]
- IC50 (CCR2): > 200 nM

SMILES: CO[C@@H]1COCC[C@@H]1N[C@@H]1C[C@H]2OCC[C@@]2(C(=O)N2CCN(c3ccnc(C(F)(F)F)n3)CC2)C1 [Example 28, ((3aS,5S,6aR)-5-(((3S,4S)-3-methoxytetrahydro-2H-pyran-4-yl)amino)hexahydro-2H-cyclopenta[b]furan-3a-yl)(4-(2-(trifluoromethyl)pyrimidin-4-yl)piperazin-1-yl)methanone]
- IC50 (CCR2): > 200 nM

SMILES: CO[C@@H]1COCC[C@@H]1N[C@@H]1C[C@H]2OCC[C@@]2(C(=O)N2CCc3ncc(C(F)(F)F)cc3C2)C1 [maleate salt, ((3aS,5S,6aR)-5-(((3S,4S)-3-methoxytetrahydro-2H-pyran-4-yl)amino)hexahydro-2H-cyclopenta[b]furan-3a-yl)(3-(trifluoromethyl)-7,8-dihydro-1,6-naphthyridin-6(5H)-yl)methanone]
- hygroscopic weight increase ([1]; up to 70% RH): 18.3%
- total hygroscopic weight increase (uptake) [1]: 79.9%

SMILES: CO[C@@H]1COCC[C@@H]1N[C@@H]1C[C@H]2OCC[C@@]2(C(=O)N2CCc3ncc(C(F)(F)F)cc3C2)C1.O=C(O)CCC(=O)O [Example 30, ((3aS,5S,6aR)-5-((3S,4S)-3-methoxytetrahydro-2H-pyran-4-ylamino)hexahydro-2H-cyclopenta[b]furan-3a-yl)(3-(trifluoromethyl)-7,8-dihydro-1,6-naphthyridin-6(5H)-yl)methanone succinate]
- EC50 (hCCR2KI mice; Mus musculus, 0.5 h, read-out: cmax EC50 in plasma): 97 nM
- inhibition of thioglycollate induced cellular infiltrate (hCCR2KI mice; mouse, in vivo, succinate): 51% and 67% and 95%
- reduction of high fat-diet induced body weight ([2]; 1 mg/kg p.o. bid, after 32-days treatment (p>0.05)): 4.94%
- reduction of high fat-diet induced body weight ([2]; 3 mg/kg p.o. bid, after 32-days treatment (p<0.01)): 10.94%
- reduction of high fat-diet induced body weight ([2]; 10 mg/kg p.o. bid, after 32-days treatment (p<0.01)): 15.7%

From US8822460B2, “Fused cyclopentyl antagonists of CCR2” (Janssen Pharmaceutica, NV, priority 2012, dated 2014)
